Measured values published in patent US20110212997A1, “PIPERIDINE-4-ACETAMIDE DERIVATIVES AND THEIR USE AS MONOAMINE NEUROTRANSMITTER RE-UPTAKE INHIBITORS” (NEUROSEARCH A/S, priority 2008, published 2011).
Structures can show the parent of a compound that is named as a salt. Where two headings read alike, the source gives them in different places.

Tests used:
[1] = target: T1, serotonine (5-HT) reuptake in synaptosomes (Rattus norvegicus, UniProt P31652); assay: Inhibition of 5-HT reuptake in synaptosomes; assay type: biochemical; conditions: 3H-5-HT, read-out: 5-HT-uptake IC50
T1 construct: serotonine (5-HT) in synaptosomes as described in WO 97/16451; from tissue
T1 sequence (P31652 whole entry): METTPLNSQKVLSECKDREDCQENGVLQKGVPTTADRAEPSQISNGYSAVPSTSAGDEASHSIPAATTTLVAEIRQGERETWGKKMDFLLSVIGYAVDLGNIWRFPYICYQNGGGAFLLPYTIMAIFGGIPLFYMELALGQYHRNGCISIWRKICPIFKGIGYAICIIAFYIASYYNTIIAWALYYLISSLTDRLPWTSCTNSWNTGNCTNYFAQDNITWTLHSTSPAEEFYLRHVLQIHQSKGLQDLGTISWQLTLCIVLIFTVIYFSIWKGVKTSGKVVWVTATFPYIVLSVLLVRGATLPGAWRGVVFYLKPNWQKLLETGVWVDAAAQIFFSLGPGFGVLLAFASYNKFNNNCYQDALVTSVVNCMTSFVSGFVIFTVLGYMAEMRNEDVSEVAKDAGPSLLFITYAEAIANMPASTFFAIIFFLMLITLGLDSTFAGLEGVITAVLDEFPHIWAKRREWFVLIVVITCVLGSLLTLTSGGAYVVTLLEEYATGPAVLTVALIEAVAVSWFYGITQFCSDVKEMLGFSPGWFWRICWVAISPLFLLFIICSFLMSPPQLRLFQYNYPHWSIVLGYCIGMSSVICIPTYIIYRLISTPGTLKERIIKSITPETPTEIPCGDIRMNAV
Procedure: (§1) Compounds were tested for their ability to inhibit the reuptake of the monoamine neurotransmitters dopamine (DA) noradrenaline (NA) and serotonine (5-HT) in synaptosomes as described in WO 97/16451 (NeuroSearch NS).
(§2) The test values are given as IC50 (the concentration (μM) of the test substance which inhibits the specific binding of ^3H-DA, ^3H-NA, or ^3H-5-HT by 50%).

[2] = target: T2, dopamine (DA) reuptake in synaptosomes (Rattus norvegicus, UniProt P23977); assay: Inhibition of DA reuptake in synaptosomes; assay type: biochemical
T2 construct: in synaptosomes as described in WO 97/16451; from tissue
T2 sequence (P23977 whole entry): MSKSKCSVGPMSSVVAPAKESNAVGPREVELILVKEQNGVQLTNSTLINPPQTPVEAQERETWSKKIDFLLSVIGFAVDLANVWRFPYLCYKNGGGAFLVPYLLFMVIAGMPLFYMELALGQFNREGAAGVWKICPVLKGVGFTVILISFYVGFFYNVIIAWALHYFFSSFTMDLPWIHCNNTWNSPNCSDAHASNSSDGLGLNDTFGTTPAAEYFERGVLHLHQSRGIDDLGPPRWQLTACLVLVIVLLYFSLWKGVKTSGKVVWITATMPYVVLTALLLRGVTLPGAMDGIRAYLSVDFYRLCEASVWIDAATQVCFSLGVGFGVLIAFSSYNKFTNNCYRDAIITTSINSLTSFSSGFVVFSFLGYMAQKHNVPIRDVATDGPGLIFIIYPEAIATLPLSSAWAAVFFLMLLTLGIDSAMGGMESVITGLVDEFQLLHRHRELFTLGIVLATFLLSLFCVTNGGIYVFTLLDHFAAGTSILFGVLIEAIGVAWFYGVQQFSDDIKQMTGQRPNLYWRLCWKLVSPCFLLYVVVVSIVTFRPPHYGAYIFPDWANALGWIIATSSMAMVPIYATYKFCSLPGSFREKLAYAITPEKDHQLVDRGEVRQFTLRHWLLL
Procedure: as §1, §2

[3] = target: T3, noradrenaline (NA) reuptake in synaptosomes (Rattus norvegicus, UniProt Q63380); assay: Inhibition of NA reuptake in synaptosomes; assay type: biochemical
T3 construct: in synaptosomes as described in WO 97/16451; from tissue
T3 sequence (Q63380 1-617): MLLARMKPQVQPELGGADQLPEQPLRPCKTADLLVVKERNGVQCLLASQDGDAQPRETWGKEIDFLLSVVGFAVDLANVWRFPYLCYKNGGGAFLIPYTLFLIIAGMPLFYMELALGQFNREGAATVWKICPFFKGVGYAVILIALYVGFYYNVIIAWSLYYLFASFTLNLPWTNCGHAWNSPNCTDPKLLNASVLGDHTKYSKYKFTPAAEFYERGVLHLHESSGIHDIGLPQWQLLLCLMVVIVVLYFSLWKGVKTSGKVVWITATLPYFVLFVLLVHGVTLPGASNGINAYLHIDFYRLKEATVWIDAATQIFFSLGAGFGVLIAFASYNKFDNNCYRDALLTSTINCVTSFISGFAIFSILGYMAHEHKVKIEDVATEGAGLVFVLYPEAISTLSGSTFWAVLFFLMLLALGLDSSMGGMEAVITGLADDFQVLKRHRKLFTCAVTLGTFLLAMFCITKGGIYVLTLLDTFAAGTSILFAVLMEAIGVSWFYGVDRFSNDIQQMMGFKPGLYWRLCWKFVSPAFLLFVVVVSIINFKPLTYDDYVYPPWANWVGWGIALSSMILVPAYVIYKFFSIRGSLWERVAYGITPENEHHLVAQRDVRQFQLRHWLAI
Procedure: as §1, §2

[4] = synaptosomes, 3H-DA, read-out: DA-uptake IC50
[5] = synaptosomes, 3H-NA, read-out: NA-uptake IC50

Row | SMILES | IC50 [1] [nM] | IC50 [2, 4] [nM] | IC50 [3, 5] [nM] | melting point [°C] | IC50 [2] [nM] | IC50 [3] [nM]
1 | CCN(C(=O)CC1CCN(C)CC1)c1cccc(Cl)c1 [Compound D7, N-(3-Chloro-phenyl)-N-ethyl-2-(1-methyl-piperidin-4-yl)-acetamide] | > 1000 | 970 | 350 |  |  | 
2 | CCCN(C(=O)CC1CCN(C)CC1)c1ccc(Cl)c(Cl)c1 (as salt: fumaric acid salt) [Compound D20, N-(3,4-Dichloro-phenyl)-2-(1-methyl-piperidin-4-yl)-N-propyl-acetamide] |  |  |  | 144 to 146 |  | 
3 | CN1CCC(CC(=O)Nc2ccc(Cl)c(Cl)c2)CC1 (as salt: fumaric acid salt) [Compound D6, N-(3,4-Dichloro-phenyl)-2-(1-methyl-piperidin-4-yl)-acetamide] |  |  |  | 180 to 183 |  | 
4 | CCN(C(=O)CC1CCN(C)CC1)c1cc(Cl)cc(Cl)c1 [Compound D17, N-(3,5-Dichloro-phenyl)-N-ethyl-2-(1-methyl-piperidin-4-yl)-acetamide] | > 1000 | > 1000 | 1800 |  |  | 
5 | CCN(C(=O)CC1CCN(C)CC1)c1ccc(Cl)cc1Cl [Compound D14, N-(2,4-Dichloro-phenyl)-N-ethyl-2-(1-methyl-piperidin-4-yl)-acetamide] | > 1000 | 2500 | 960 |  |  | 
6 | CCN(C(=O)CC1CCNCC1)c1ccc(Cl)cc1 [Compound C3, N-(4-Chloro-phenyl)-N-ethyl-2-piperidin-4-yl-acetamide] | > 1000 | 450 | 770 |  |  | 
7 | CCN(C(=O)CC1CCNCC1)c1ccc(Cl)c(Cl)c1Cl [Compound C10, N-Ethyl-2-piperidin-4-yl-N-(2,3,4-trichloro-phenyl)-acetamide] | 1400 | 630 | 120 |  |  | 
8 | CN1CCC(CC(=O)Nc2ccc(Cl)c(Cl)c2)CC1 [Compound D6, N-(3,4-Dichloro-phenyl)-2-(1-methyl-piperidin-4-yl)-acetamide] | > 1000 | > 1000 | > 1000 |  |  | 
9 | CCN(C(=O)CC1CCNCC1)c1cc(Cl)cc(Cl)c1 [Compound C9, N-(3,5-Dichloro-phenyl)-N-ethyl-2-piperidin-4-yl-acetamide] | > 1000 | 1900 | 670 |  |  | 
10 | CCN(C(=O)CC1CCN(C(C)C)CC1)c1ccc(Cl)c(Cl)c1 [Compound D10, N-(3,4-Dichloro-phenyl)-N-ethyl-2-(1-isopropyl-piperidin-4-yl)-acetamide] | 1200 | 31 | 7.7 |  |  | 
11 | CCN(C(=O)CC1CCNCC1)c1cc(Cl)ccc1Cl [Compound C7, N-(2,5-Dichloro-phenyl)-N-ethyl-2-piperidin-4-yl-acetamide] | > 1000 | 2600 | 1500 |  |  | 
12 | CCN(C(=O)CC1CCNCC1)c1cccc(Cl)c1Cl [Compound C6, N-(2,3-Dichloro-phenyl)-N-ethyl-2-piperidin-4-yl-acetamide] | > 1000 | > 1000 | 910 |  |  | 
13 | O=C(CC1CCNCC1)Nc1ccc(Cl)c(Cl)c1 [Compound C2, N-(3,4-Dichloro-phenyl)-2-piperidin-4-yl-acetamide] | 23 | > 1000 | > 1000 |  |  | 
14 | CCCN(C(=O)CC1CCNCC1)c1ccc(Cl)c(Cl)c1 (as salt: fumaric acid salt) [Compound C12, N-(3,4-Dichloro-phenyl)-2-piperidin-4-yl-N-propyl-acetamide] |  |  |  | 55 to 58 |  | 
15 | CCCN(C(=O)CC1CCN(C)CC1)c1ccc(Cl)c(Cl)c1 [Compound D20, N-(3,4-Dichloro-phenyl)-2-(1-methyl-piperidin-4-yl)-N-propyl-acetamide] | 700 | 12 | 3.4 |  |  | 
16 | CCN(C(=O)CC1CCN(C)CC1)c1cccc(Cl)c1Cl [Compound D8, N-(2,3-Dichloro-phenyl)-N-ethyl-2-(1-methyl-piperidin-4-yl)-acetamide] | > 1000 | > 1000 | > 1000 |  |  | 
17 | CCN(C(=O)CC1CCN(C)CC1)c1ccc(Br)c(Cl)c1 [Compound D13, N-(4-Bromo-3-chloro-phenyl)-N-ethyl-2-(1-methyl-piperidin-4-yl)-acetamide] | 1500 | 16 | 2.7 |  |  | 
18 | CCN(C(=O)CC1CCNCC1)c1ccc(Cl)c(Cl)c1 [Compound C1, N-(3,4-Dichloro-phenyl)-N-ethyl-2-piperidin-4-yl-acetamide] | 1500 | 15 | 6.6 |  |  | 
19 | CCCN1CCC(CC(=O)N(CC)c2ccc(Cl)c(Cl)c2)CC1 [Compound D9, N-(3,4-Dichloro-phenyl)-N-ethyl-2-(1-propykpiperidin-4-yl)-acetamide] | 780 |  |  |  | 12 | 3.8

Row | SMILES | IC50 [1] [nM] | IC50 [2, 4] [nM] | IC50 [3, 5] [nM] | melting point [°C] | IC50 [2] [nM] | IC50 [3] [nM]
20 | CN1CCC(CC(=O)N(C)c2ccc(Cl)c(Cl)c2)CC1 [Compound D12, N-(3,4-Dichloro-phenyl)-N-methyl-2-(1-methyl-piperidin-4-yl)-acetamide] | > 1000 | 160 | 69 |  |  | 
21 | CCN1CCC(CC(=O)N(CC)c2ccc(Cl)c(Cl)c2)CC1 [Compound D11, N-(3,4-Dichloro-phenyl)-N-ethyl-2-(1-ethyl-piperidin-4-yl)-acetamide] | 870 | 13 | 3.2 |  |  | 
22 | CCN(C(=O)CC1CCN(C)CC1)c1cccc2ccccc12 [Compound D3, N-Ethyl-2-(1-methyl-piperidin-4-yl)-N-naphthalen-1-yl-acetamide] | > 1000 | > 1000 | 1700 |  |  | 
23 | CN(C(=O)CC1CCNCC1)c1ccc(Cl)c(Cl)c1 [Compound B1, N-(3,4-Dichloro-phenyl)-N-methyl-2-piperidin-4-yl-acetamide] | 280 | 230 | 120 |  |  | 
24 | CCCN(C(=O)CC1CCNCC1)c1ccc(Cl)c(Cl)c1 [Compound C12, N-(3,4-Dichloro-phenyl)-2-piperidin-4-yl-N-propyl-acetamide] | 880 | 12 | 5.2 |  |  | 
25 | CCN(C(=O)CC1CCN(C)CC1)c1ccc(Cl)c(Cl)c1Cl [Compound D18, N-Ethyl-2-(1-methyl-piperidin-4-yl)-N-(2,3,4-trichloro-phenyl)-acetamide] | 2100 |  | 81 |  |  | 
26 | CCN(C(=O)CC1CCN(C)CC1)c1ccc(Br)c(Br)c1 [Compound D19, N-(3,4-Dibromo-phenyl)-N-ethyl-2-(1-methyl-piperidin-4-yl)-acetamide] | 680 | 3.6 | 1.1 |  |  | 
27 | CCN(C(=O)CC1CCNCC1)c1ccc(Cl)c(Br)c1 [Compound C13, N-(3-Bromo-4-chloro-phenyl)-N-ethyl-2-piperidin-4-yl-acetamide] | 1200 | 8 | 1.3 |  |  | 
28 | CCN(C(=O)CC1CCN(C)CC1)c1ccc(Cl)c(Br)c1 [Compound D21, N-(3-Bromo-4-chloro-phenyl)-N-ethyl-2-(1-methyl-piperidin-4-yl)-acetamide] | 1200 | 12 | 2.3 |  |  | 
29 | CCN(C(=O)CC1CCN(C)CC1)c1cc(Cl)ccc1Cl [Compound D15, N-(2,5-Dichloro-phenyl)-N-ethyl-2-(1-methyl-piperidin-4-yl)-acetamide] | > 1000 | 1700 | 860 |  |  | 
30 | CCN(C(=O)CC1CCN(C)CC1)c1c(Cl)cccc1Cl [Compound D16, N-(2,6-Dichloro-phenyl)-N-ethyl-2-(1-methyl-piperidin-4-yl)-acetamide] | > 1000 | > 1000 | > 1000 |  |  | 
31 | CCN(C(=O)CC1CCNCC1)c1cccc(Cl)c1 [Compound C4, N-(3-Chloro-phenyl)-N-ethyl-2-piperidin-4-yl-acetamide] | > 1000 | 600 | 460 |  |  | 
32 | CCN(C(=O)CC1CCN(C)CC1)c1ccc(Cl)cc1 [Compound D2, N-(4-Chloro-phenyl)-N-ethyl-2-(1-methyl-piperidin-4-yl)-acetamide] | > 1000 | 970 | 390 |  |  | 
33 | CCN(C(=O)CC1CCNCC1)c1cccc2ccccc12 [Compound C5, N-Ethyl-N-naphthalen-1-yl-2-piperidin-4-yl-acetamide] | > 1000 | > 1000 | 600 |  |  | 
34 | CCN(C(=O)CC1CCNCC1)c1ccc(Br)c(Cl)c1 [Compound D4, N-(4-Bromo-3-chloro-phenyl)-N-ethyl-2-piperidin-4-yl-acetamide] | 2100 | 8.6 | 2.6 |  |  | 
35 | CCN(C(=O)CC1CCNCC1)c1ccc(Br)c(Br)c1 [Compound C11, N-(3,4-Dibromo-phenyl)-N-ethyl-2-piperidin-4-yl-acetamide] | 610 | 2.2 | 1.2 |  |  | 
36 | CCN(C(=O)CC1CCNCC1)c1c(Cl)cccc1Cl [Compound C8, N-(2,6-Dichloro-phenyl)-N-ethyl-2-piperidin-4-yl-acetamide] | > 1000 | > 1000 | 2700 |  |  | 
37 | CCN(C(=O)CC1CCNCC1)c1ccc(Cl)cc1Cl [Compound D5, N-(2,4-Dichloro-phenyl)-N-ethyl-2-piperidin-4-yl-acetamide] | > 1000 | > 1000 | > 1000 |  |  | 
38 | CCN(C(=O)CC1CCN(C)CC1)c1ccc(Cl)c(Cl)c1 [Compound D1, N-(3,4-Dichloro-phenyl)-N-ethyl-2-(1-methyl-piperidin-4-yl)-acetamide] | 1400 | 20 | 4.4 |  |  | 
